In patent publication US20090275538A1, “ARYLMETHYLIDENE HETEROCYCLES AS NOVEL ANALGESICS” (priority 2008, published 2009):

System: neuropathic rats (chronic constriction injury of the left sciatic nerve)
Test: Analgesic effect in chronic constriction injury (Bennett) model of neuropathic pain, Von Frey 50% withdrawal threshold
Format: in vivo, Sprague-Dawley rats
Details: rats rendered neuropathic via the Bennett Model; intrathecal administration in Captisol; mean ± SEM; p<0.05 vs vehicle control
Experimental: Determination of Analgesic Effect in an Experimental Model of Neuropathic Pain
Adult, male Sprague-Dawley rats were obtained from Charles River Laboratories (Wilmington, Mass.) and housed under standard conditions at the Institut Armand-Frappier (Laval, QC). Food and water were provided to experimental animals ad libitum, and rats weighed 175-200 grams at the time of assessment.
Compounds were prepared for intrathecal administration by dissolving them in a vehicle of Captisol® (CyDex, Lenexa, Kans.); total volume of solution administered to rats was 20 μL.
Neuropathic pain was induced in rats via chronic constriction injury (CCl) of the left sciatic nerve in accordance with the procedure described by Bennett & Xie (Pain, 1988). Briefly, under ketamine/xylazine anaesthesia, the sciatic nerve was exposed by dissection at the level of mid-thigh, and four loose ligatures (USP 4/0, Braun Melsungen, FRG) were implanted around the nerve—with due attention not to interrupt the epineural circulation. The incision was closed-up using simple suturing, and the rats allowed to recover.
After approximately two weeks, a stable allodynia to blunt mechanical stimuli was identified in the hind paw ipsilateral to the CCl, manifested as a reduction of 50% withdrawal threshold, and identified using the Von Frey technique, as described by Chaplan et al. (Journal of Neuroscience Methods, 1994). Rats were considered to be fully neuropathic upon displaying a 50% withdrawal threshold of <3.5 grams consistently over the course of 72 hours.
Under brief isoflurane […], compounds were administered to neuropathic rats via acute local delivery in the intrathecal space surrounding the lumbar enlargement of the spinal cord.

Compound | Peak 50% Withdrawal Threshold [g]
Cl.O=C1N=C(N2CCCCN2)S/C1=C/c1ccc(F)cc1OC(=O)N1CCCC1 [2-{[(5E)-2-(1,2-diazinan-1-yl)-4-oxo-4,5-dihydro-1,3-thiazol-5-ylidene]methyl}-5-fluorophenyl pyrrolidine-1-carboxylate hydrochloride] | 7.42 ± 1.21
Cl.O=C1N=C(N2CCCCN2)S/C1=C/c1cc(F)ccc1OC(=O)N1CCCC1 [2-{[(5E)-2-(1,2-diazinan-1-yl)-4-oxo-4,5-dihydro-1,3-thiazol-5-ylidene]methyl}-4-fluorophenylpyrrolidine-1-carboxylate hydrochloride] | 8.18 ± 1.98
O=C1N=C(N2CCN(CCO)CC2)S/C1=C\c1ccc(F)cc1O | 8.23 ± 2.40
O=C1N=C(N2CCCCN2)S/C1=C\c1cc(F)ccc1O [(5Z)-2-(1,2-diazinan-1-yl)-5-[(5-fluoro-2-hydroxyphenyl)methylidene]-4,5-dihydro-1,3-thiazol-4-one] | 9.03 ± 2.00
CN(C)[C@@H]1CCN(C2=NC/C(=C/c3cc(F)ccc3O)S2)C1.Cl | 6.44 ± 1.33
O=C1N=C(N2CCCCN2)S/C1=C\c1ccc(F)cc1O [(5Z)-2-(1,2-diazinan-1-yl)-5-[(4-fluoro-2-hydroxyphenyl)methylidene]-4,5-dihydro-1,3-thiazol-4-one] | 7.37 ± 2.02
O=C1N=C(N2CCCCC2)S/C1=C\c1ccccc1O | 6.74 ± 2.13
CN(C)[C@@H]1CCN(C2=NC(=O)/C(=C/c3ccc(F)cc3O)S2)C1 | 5.6 ± 1.94
CS(=O)(=O)O.O=C1N=C(N2CCN(CCO)CC2)S/C1=C\c1cc(F)ccc1O | 6.40 ± 2.45
CN(C)[C@H]1CCN(C2=NC(=O)/C(=C/c3cc(F)ccc3O)S2)C1.CS(=O)(=O)O | 9.72 ± 2.04
CN(C)[C@H]1CCN(C2=NC(=O)/C(=C/c3ccc(F)cc3O)S2)C1.CS(=O)(=O)O | 7.3 ± 1.37
CN(C)C(=O)Oc1cc(F)ccc1/C=C1/SC(N2CCCCN2)=NC1=O.Cl [2-{[(5E)-2-(1,2-diazinan-1-yl)-4-oxo-4,5-dihydro-1,3-thiazol-5-ylidene]methyl}-5-fluorophenyl N,N-dimethylcarbamate hydrochloride] | 6.18 ± 1.77
CCN(CC)C1CCN(C2=NC(=O)/C(=C\c3cc(F)ccc3OC(=O)N(C)C)S2)C1 (stereo not shown) | 11.84 ± 1.58
